Reference: patent US12544371B2, “Methods and compositions for treating acute lung injury and acute respiratory distress syndrome” (CalciMedica, Inc., priority 2020, dated 2026)
Read-outs that look alike come from different tables or passages of the source.

Columns and labels:
[1] = Repeat-dose toxicity study in rats; type: in vivo; conditions: rat
[2] = test system: IL-2 release by human CD4+ T cells; assay: IL-2 release by human CD4+ T cells, isolated cell assay; type: cell-based; conditions: SEM (n), read-out: Compound 1 IC50, IL-2 release by human CD4+ T cells
Text: (§1) CRAC channels may play a proximal role in a calcium-calcineurin pathway leading to cytokine release in immune cells.

[3] = cited from earlier work
[4] = PD/PK study in patients with acute pancreatitis (Compound 1 Test 202); type: in vivo, human
Procedure: In Compound 1 Test 202, a pharmacodynamic and pharmacokinetic study of Compound 1 in patients with acute pancreatitis, patients with AP (regardless of the presence of SIRS and/or hypoxemia) were administered a single IV infusion of 2.08 mg/kg of an injectable emulsion of Compound 1 and blood, plasma and serum were collected for analysis. It was planned to initially enroll 5 patients and then to enroll an additional 4 patients as needed. Ultimately, 7 patients were screened for the study, and all 7 enrolled in and completed the study. On Days 1 and 2, blood and plasma samples for PD and PK analyses, respectively, were obtained 30 minutes after completing the administration of Compound 1 and 24 hours from the start of the administration of Compound 1. In patients hospitalized at Day 5 and 10, blood and plasma samples were obtained; if discharged earlier, samples were obtained at the time of discharge. After discharge, patients returned to the hospital on Day 30 to provide final blood and plasma samples.

[5] = test system: IL-1β released from human PBMCs; assay: Cytokine released from human PBMCs: IL-1β; type: cell-based
Text: as §1

[6] = In vivo micronucleus study (bone marrow micronucleus and liver Comet assays); conditions: rats
[7] = Phase 1 multiple ascending dose study (Compound 1 Test 102), healthy subjects; conditions: for AUC(0-t) / Cmax: human, plasma, intravenous
Procedure: One of the subjects received placebo at the maximum dose volume of emulsion, 1.3 mL/kg, for 7 days, whereas all others were dosed on a weight-based adjustment of dose volume.

[8] = test system: IL-10 released from human PBMCs; assay: Cytokine released from human PBMCs: IL-10; type: cell-based; conditions: PBMC, mean of replicates
Text: as §1

[9] = test system: IL-6 released from human PBMCs; assay: Cytokine released from human PBMCs: IL-6; type: cell-based
Text: as §1

[10] = Animal models of acute pancreatitis and lung injury (general statements); type: in vivo
Text: Preclinical data supports the use of CRAC inhibitors (e.g. N-(5-(6-Chloro-2,2-difluorobenzo[d][1,3]dioxol-5-yl)pyrazin-2-yl)-2-fluoro-6-methylbenzamide, Compound 1) in severe COVID-19 pneumonia.
For example, Compound 1 was effective following i.p. injection in mice (Wen et al., Gastroenterol, 149: 481-492, 2015), and following 4-hour i.v. infusion in rats (Waldron et al., J Physiol, 597.12: 3085-3105, 2019).

[11] = Safety pharmacology studies in rats; type: in vivo
Text: Compound 1 is a non-limiting example of a composition described herein that inhibits calcium release-activated calcium (CRAC) channels).

[12] = Repeat-dose toxicity study in monkeys; conditions: in vivo, monkey
Procedure: Hemolysis testing concluded that Compound 1 was compatible with human plasma and non-hemolytic in human blood.
Plasma concentrations of compound rise steadily during the 4-hour infusion, with Tmax achieved at the end of infusion (4 hours). After the end of infusion, there is a rapid and prominent distribution phase followed by a prolonged period of residual drug levels. The terminal elimination phase has not yet been fully characterized as it appears to be much longer than was anticipated based on pre-clinical PK data in mouse, rat, dog and monkey. Plasma concentrations during the terminal phase are approximately 5% of Cmax values and, as indicated above, to date there have been no clinically significant AEs reported during this phase. Plasma exposures, defined by AUC0-24 h, appear to be dose-proportional and reached a maximum of 6710 ng*h/mL in Group 5, which is 4.3-fold below the mean AUC24 h in monkey at the NOAEL (29,000 ng*hr/mL).

Q: With `Cc1cccc(F)c1C(=O)Nc1cnc(-c2cc3c(cc2Cl)OC(F)(F)O3)cn1` [Compound 1, N-(5-(6-Chloro-2,2-difluorobenzo[d][1,3]dioxol-5-yl)pyrazin-2-yl)-2-fluoro-6-methylbenzamide] as the compound, how does the NOAEL ([1]; in vivo, repeat-dose, rats, read-out: no observable adverse effect level (NOAEL)) read?
A: 25 mg/kg/day

Q: What about the “local irritation at the injection site” value ([1]; repeat-dose toxicity study) of the same compound?
A: no evidence of compound-related or vehicle-related local irritation

Q: What about the IC50 [2] of the same compound?
A: 4 ± 0.5 nM

Q: And the “cytokine levels in serum and lung” value ([3]; animal models)?
A: decreases

Q: And the “lung inflammation in animal models” value ([3]; animal models)?
A: protect against lung inflammation

Q: And the “efficacy following i.p. injection” value ([3]; mice, Wen et al. 2015)?
A: effective

Q: And the “efficacy following 4-hour i.v. infusion” value ([3]; rats, Waldron et al. 2019)?
A: effective

Q: What about the “patients with moderate TEAEs” value ([4]; 1 of 7 patients) of the same compound?
A: 14%

Q: What about the “patients with severe TEAEs” value ([4]; 2 of 7 patients, also SAEs, not considered drug related) of the same compound?
A: 29%

Q: What about the “number of TEAEs” value ([4]; 7 patients, single 2.08 mg/kg) of the same compound?
A: 7 TEAEs

Q: What about the “patients who experienced TEAEs” value ([4]; 7 patients, single IV infusion of 2.08 mg/kg) of the same compound?
A: 3 patients

Q: And the “Discharge IL-6 levels, patients with IL-6 ≥ 1000 pg/mL” value ([4]; PK/PD Single Dose, admission 0)?
A: 0

Q: And the “Discharge IL-6 levels, patients with 150 pg/mL ≤ IL-6 < 1000 pg/mL” value ([4]; PK/PD Single Dose, admission 1)?
A: 0

Q: What about the “TEAEs with causality Unlikely” value ([4]; of the 7 TEAEs) of the same compound?
A: 2 TEAEs

Q: What about the “TEAEs with causality Unrelated” value ([4]; of the 7 TEAEs) of the same compound?
A: 5 TEAEs

Q: And the “mild TEAEs” value ([4]; of the 7 TEAEs)?
A: 3 TEAEs

Q: What about the “moderate TEAEs” value ([4]; of the 7 TEAEs) of the same compound?
A: 2 TEAEs

Q: What about the “severe TEAEs (also SAEs)” value ([4]; of the 7 TEAEs) of the same compound?
A: 2 TEAEs

Q: What about the IC50 ([5]; Homo sapiens, PBMC, mean of replicates, read-out: Mean IC50, IL-1β released from human PBMCs) of the same compound?
A: 240 nM

Q: And the IC50 ([5]; Homo sapiens, PBMC, single replicates, read-out: Replicate IC50 values, IL-1β released from human PBMCs)?
A: 264 nM

Q: What about the IC50 ([5]; single replicates, read-out: Replicate IC50 values, IL-1β released from human PBMCs) of the same compound?
A: 217 nM

Q: And the “DNA reactivity, bone marrow micronucleus and liver Comet assays” value [6]?
A: no evidence of DNA reactivity

Q: What about the Cmax accumulation ([7]; MAD Group 1, 0.5 mg/kg) of the same compound?
A: 1.6 fold

Q: What about the “increase in systemic exposure (AUC24 h), Day 7 compared to Day 1” value ([7]; MAD Group 1, 0.5 mg/kg) of the same compound?
A: 2.6 fold

Q: What about the “margin of Day 7 AUC24 h below NOAEL AUC24 h in monkey” value ([7]; MAD Group 1, 0.5 mg/kg) of the same compound?
A: 9.1 fold

Q: What about the Cmax accumulation ([7]; MAD Group 2, 1.0 mg/kg) of the same compound?
A: 1.4 fold

Q: And the “increase in AUC24 h, Day 7 compared to Day 1” value ([7]; MAD Group 2, 1.0 mg/kg)?
A: 2.6 fold

Q: And the “margin of Day 7 AUC24 h below NOAEL AUC24 h in monkey” value ([7]; MAD Group 2, 1.0 mg/kg)?
A: 4.2 fold

Q: And the “clinically significant laboratory abnormalities” value ([7]; MAD group 1)?
A: No laboratory abnormalities

Q: And the “SAEs and AEs classified as moderate or severe” value ([7]; MAD group 1, 0.50 mg/kg daily for 7 days)?
A: no SAEs and no AEs classified as moderate or severe in intensity

Q: What about the “number of clinical AEs (all mild)” value ([7]; MAD group 1, eight subjects incl. placebo) of the same compound?
A: 15

Q: And the “clinically significant laboratory abnormalities” value ([7]; MAD group 2)?
A: No laboratory abnormalities

Q: What about the “SAEs and AEs classified as moderate or severe” value ([7]; MAD group 2, 1.0 mg/kg daily for 7 days) of the same compound?
A: no SAEs and no AEs classified as moderate or severe in intensity

Q: And the “number of AEs (all mild)” value ([7]; MAD group 2, eight subjects incl. placebo)?
A: three

Q: And the “cardiac function: heart rate, QTcF, B-type natriuretic peptide” value ([7]; MAD, both groups)?
A: no evidence of any sustained treatment related effect

Q: What about the “systolic or diastolic blood pressure” value ([7]; MAD, both groups) of the same compound?
A: no evidence of any sustained treatment related increase

Q: And the AUC(0-t) ([7]; 0.5 mg/kg)?
A: 3190 ng·h/mL

Q: What about the Cmax ([7]; 0.5 mg/kg) of the same compound?
A: 363 ng/mL

Q: And the AUC(0-t) ([7]; 1 mg/kg)?
A: 6830 ng·h/mL

Q: And the Cmax ([7]; 1 mg/kg)?
A: 637 ng/mL

Q: What about the IC50 [8] of the same compound?
A: 303 nM

Q: And the IC50 ([9]; Homo sapiens, PBMC, mean of replicates, read-out: Mean IC50, IL-6 released from human PBMCs)?
A: 135 nM

Q: And the IC50 ([9]; Homo sapiens, PBMC, single replicates, read-out: Replicate IC50 values, IL-6 released from human PBMCs)?
A: 145 nM

Q: What about the IC50 ([9]; single replicates, read-out: Replicate IC50 values, IL-6 released from human PBMCs) of the same compound?
A: 126 nM

Q: What about the “cytokines and neutrophil infiltration in lung tissue” value [10] of the same compound?
A: inhibit

Q: What about the “adverse effects on central nervous or respiratory systems” value [11] of the same compound?
A: no adverse effects

Q: What about the AUC(0-t) ([12]; NOAEL 3 mg/kg/day, read-out: mean AUC24 h in monkey at the NOAEL) of the same compound?
A: 29000 ng·h/mL

Q: And the NOAEL ([12]; repeat-dose, monkeys, read-out: no observable adverse effect level (NOAEL))?
A: 3 mg/kg/day
